US4401827A, “Novel acyl-derivatives of carnitine and process for their preparation” (Sigma-Tau, priority 1978, dated 1983)
Like-named read-outs stand apart in the source and are kept apart here.

Assays:
[1] = acute toxicity (tolerance) i.p. in mice, Weil method; conditions: mouse, in vivo, ip, Weil method (N = 5, K = 4)
Text: The tolerance of the Acyl-carnitines of the formula (I), as well as their salts administered by intraperitoneal route was investigated in mice using the Weil Method (1).
LD50, mg kg^-1 i.p. in mice,
of some acyl derivatives of formula (1).
Weil method (N = 5, K = 4)

[2] = tested on: rat's ventricle strip; assay: antiarrhythmic effect, isolated rat ventricle strip test; conditions: for inhibition at 1 µM / activation at 1 µM: Rattus norvegicus, concentration 1·10^-6 M; for inhibition at 1 µM: decrease; for activation at 1 µM: increase
Text: (2) M. Libonati and G. Segre, Archivio Italiano di Scienze Farmacologiche. Serie XIII, Vol. X, pag. 3, (1960)
effect of some acyl derivatives (concentration 1 · 10^-6
of the formula (1) on the rat's ventricle strip test.
% variation versus basal value.

[3] = tested on: arrhythmia induced by Aconitine in mice; assay: arrhythmia induced by Aconitine in mice; format: in vivo; conditions: for change in vivo at 300 mg/kg / change in vivo at 150 mg/kg / change in vivo at 40 mg/kg / change in vivo at 75 mg/kg / change in vivo at 89 mg/kg: Mus musculus, iv; for antiarrhythmic activity (in words): Aconitine, mice
Procedure: The antiarrhythmic effect of the compounds was also investigated in mice according to the P. W. Nwangwu, T. Holcslow procedure (4). Using Aconitine (5 mg/ml) as arrhythmogenic agent, the changes in the cardiac rhythm of the animals were recorded and the onset time of initial arrhythmia and/or of ventricular tachycardia were used as End point.
Antiarrhythmic agents display an increase in the latency time of initial ECG change.
(4) P. W. Nvangvu, T. L. Holcslow, Arch. Int. Pharmacodyn. 229, 219 (1977)
on the arrhythmia induced by Aconitine (5 γ/ml) in mice.
% increase of the time to onset of initial cardiac arrythmia

[4] = tested on: plasma cholesterol, triglycerides and lipoproteins in rat; assay: plasma cholesterol, triglycerides and lipoproteins in rat treated with olive oil; format: in vivo; conditions: rats, single treatment
Procedure: In the rats the lipoproteic pattern altered due to an oil administration by gavage, was restored after a single treatment with d,l dipropyl ACAR; d,l ethyl exanoyl CAR; d,l 3 bromopropionyl CAR and d,l pyruvyl CAR.
The effect of some acyl derivatives of formula (I) on plasma cholesterol,
triglycerides and lipoproteins in rat
treated with olive oil, 15 ml kg^-1 orally. Mean Values ± SEM
Student "t" test .quadrature., Δ and indicate respectively a non
significant difference, a P ≤ 1% and 1%.

[5] = read-out: maximed frequency (- %), % variation versus basal value
[6] = read-out: whole excitability (- %), % variation versus basal value
[7] = read-out: refractory period (+ %), % variation versus basal value
[8] = read-out: rheobase (+ %), % variation versus basal value
[9] = read-out: latency time increase % of controls, arrhythmias
[10] = read-out: latency time increase % of controls, tachycardia

Row | Structure (SMILES) | LD50 [1] | inhibition at 1 µM [2, 5] | inhibition at 1 µM [2, 6] | activation at 1 µM [2, 7] | activation at 1 µM [2, 8] | change in vivo at 300 mg/kg [3, 9] | change in vivo at 300 mg/kg [3, 10] | lipoproteic pattern altered due to oil administration (in words) [4] | antiarrhythmic properties (in words) ([2]; isolated rat ventricle method) | change in vivo at 150 mg/kg [3, 9] | change in vivo at 150 mg/kg [3, 10] | change in vivo at 40 mg/kg [3, 9] | change in vivo at 40 mg/kg [3, 10] | change in vivo at 75 mg/kg [3, 9] | change in vivo at 75 mg/kg [3, 10] | antiarrhythmic activity (in words) [3] | change in vivo at 89 mg/kg [3, 9] | change in vivo at 89 mg/kg [3, 10]
1 | CCCCC(CC)C(=O)OC(CC(=O)[O-])C[N+](C)(C)C (racemic) [d,l 2-ethylhexanoyl CAR] | 950 mg/kg | 25.5% | 40.3% | 22.8% | 21.8% | 20% | 10% | restored |  |  |  |  |  |  |  |  |  | 
2 | C[N+](C)(C)CC(CC(=O)[O-])OC(=O)CCCCl (racemic) [d,l 4-Cl--butyryl CAR] | 850 mg/kg | 60.2% | 55.1% | 38.3% | 35.2% | 20% | 10% |  | most clear out antiarrhythmic properties |  |  |  |  |  |  |  |  | 
3 | C[N+](C)(C)CC(CC(=O)[O-])OC(=O)C=Cc1cccc(Br)c1 (racemic) [d,l m-bromocinnamoyl CAR] | 650 mg/kg | 28.5% | 50.4% | 45.2% | 38.1% |  |  |  |  | 40% | 28% |  |  |  |  |  |  | 
4 | C[N+](C)(C)C[C@@H](CC(=O)[O-])OC(=O)C=Cc1cccc(C(F)(F)F)c1 [l trifluoromethylcinnamoyl CAR] | 540 mg/kg | 32.7% | 60.5% | 40.1% | 39.2% |  |  |  |  |  |  | 60% | 45% |  |  |  |  | 
5 | C[N+](C)(C)C[C@@H](CC(=O)[O-])OC(=O)CCBr [l 3-Br--propionyl CAR] | 960 mg/kg | 50.5% | 60.2% | 45.1% | 42.4% |  |  |  |  | 25% | 12% |  |  |  |  |  |  | 
6 | C[N+](C)(C)CC(CC(=O)[O-])OC(=O)C1CCCCC1 (racemic) [d,l cyclohexyl CAR] | 850 mg/kg | 22.1% | 26.4% | 15.8% | 18.2% | 50% | 38% |  |  |  |  |  |  |  |  |  |  | 
7 | C[N+](C)(C)CC(CC(=O)[O-])OC(=O)C=Cc1ccc(Cl)cc1 (racemic) [d,l p-chlorocinnamoyl CAR] | 935 mg/kg | 25.1% | 22.2% | 22.3% | 20.4% | 25% | 10% |  |  |  |  |  |  |  |  |  |  | 
8 | C[N+](C)(C)CC(CC(=O)[O-])OC(=O)Cc1ccc2ccccc2c1 (racemic) [d,l naphtalene ACAR] | 880 mg/kg | 41.2% | 40.1% | 39.3% | 41.2% |  |  |  |  |  |  |  |  | 25% | 10% |  |  | 
9 | COc1ccc(C=CC(=O)OC(CC(=O)[O-])C[N+](C)(C)C)cc1 (racemic) [d,l p-methoxycinnamoyl CAR] | 440 mg/kg | 22.2% | 31.5% | 36.1% | 22.2% |  |  |  |  | 70% | 56% |  |  |  |  | markedly exhibited |  | 
10 | CC(C)(C)C(=O)O[C@H](CC(=O)[O-])C[N+](C)(C)C [l pivaloyl CAR] | 618 mg/kg | 60.4% | 48.1% | 38.3% | 35.1% | 25% | 15% |  |  |  |  |  |  |  |  |  |  | 
11 | Cc1ccc(C=CC(=O)OC(CC(=O)[O-])C[N+](C)(C)C)cc1 (racemic) [d,l p-methylcinnamoyl CAR] | 620 mg/kg | 38.6% | 71.1% | 45.3% | 32.4% |  |  |  |  | 20% | 9% |  |  |  |  |  |  | 
12 | C[N+](C)(C)CC(CC(=O)[O-])OC(=O)CCC1CCCCC1 (racemic) [d,l cyclohexylpropionyl CAR] | 955 mg/kg | 45.3% | 25.5% | 12.5% | 22.4% |  |  |  |  | 70% | 55% |  |  |  |  | markedly exhibited |  | 
13 | CCC(CC)C(=O)OC(CC(=O)[O-])C[N+](C)(C)C (racemic) [d,l diethyl ACAR] | 1200 mg/kg | 25.1% | 27.5% | 31.2% | 20.6% | 25% | 32% |  |  |  |  |  |  |  |  |  |  | 
14 | CCCC(CCC)C(=O)O[C@@H](CC(=O)[O-])C[N+](C)(C)C [d dipropyl ACAR] | 1600 mg/kg | 22.4% | 25.5% | 38.3% | 21.7% |  |  |  |  |  |  | 50% | 30% |  |  |  |  | 
15 | CC(C)(C)C(=O)OC(CC(=O)[O-])C[N+](C)(C)C (racemic) [d,l pivaloyl CAR] | 855 mg/kg | 58.4% | 65.5% | 40.6% | 40.2% | 20% | 10% |  |  |  |  |  |  |  |  |  |  | 
16 | C=C[C@H]1C[N@@]2CC[C@H]1C[C@@H]2[C@@H](O)c1ccnc2ccc(OC)cc12 [Quinidine, reference compound] |  | 72.5% | 191% | 57.4% | 51.2% |  |  |  |  |  |  |  |  |  |  |  | 50% | 41.7%
17 | CC(C)Cc1ccc(CC(=O)OC(CC(=O)[O-])C[N+](C)(C)C)cc1 (racemic) [d,l p-isobutyl phenyl ACAR] | 378 mg/kg | 38.2% | 35.2% | 22.5% | 22.2% | 20% | 10% |  |  |  |  |  |  |  |  |  |  | 
18 | C[N+](C)(C)CC(CC(=O)[O-])OC(=O)C=Cc1cccc(C(F)(F)F)c1 (racemic) [d,l trifluoromethylcinnamoyl CAR] | 845 mg/kg | 41.3% | 24.3% | 25.7% | 19.5% |  |  |  |  |  |  | 50% | 30% |  |  |  |  | 
